The text below walks through data of patent US8507533B2, “Glucagon receptor modulators” (Pfizer Inc., priority 2011, dated 2013).

SMILES strings stand for the structures.

human glucagon receptor, sequence (P47871 26-477): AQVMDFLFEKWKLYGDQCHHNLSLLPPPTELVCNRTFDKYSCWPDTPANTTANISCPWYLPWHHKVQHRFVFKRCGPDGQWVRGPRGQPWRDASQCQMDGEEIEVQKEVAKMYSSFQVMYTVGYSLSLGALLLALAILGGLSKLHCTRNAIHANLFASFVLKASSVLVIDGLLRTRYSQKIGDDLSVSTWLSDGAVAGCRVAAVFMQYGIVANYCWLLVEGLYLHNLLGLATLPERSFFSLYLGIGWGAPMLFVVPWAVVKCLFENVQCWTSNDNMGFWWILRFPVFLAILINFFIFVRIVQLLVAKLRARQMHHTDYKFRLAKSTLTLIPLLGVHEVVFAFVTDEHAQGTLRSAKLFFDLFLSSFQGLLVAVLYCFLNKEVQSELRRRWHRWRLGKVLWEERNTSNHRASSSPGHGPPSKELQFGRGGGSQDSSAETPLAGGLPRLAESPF

This experiment has as its target human glucagon receptor (Homo sapiens (Human), UniProt P47871). The experiment can be described thus: Glucagon cAMP Assay (Cisbio cAMP detection). Conditions: CHOK1 cells stably transfected with the human glucagon receptor; block of glucagon induced cAMP production; Kb by modified Cheng-Prusoff equation. It counts as cell-based. On the procedure:
The Cisbio cAMP detection assay is used to determine the ability of punitive glucagon antagonist to block glucagon induced cAMP production. Potential glucagon antagonists are re-suspended and diluted in 100% DMSO. Prior to use in the Glucagon cAMP assay 100×DMSO compound stocks are diluted 20× with DMEM-F12 media (Invitrogen) containing either 0.1% or 4% BSA. […] 2 μls of 5% DMSO or known glucagon antagonist are added to each plate to define the assay window. CHOK1 cells stably transfected with the human glucagon receptor are removed from culture flasks with cell dissociation buffer. Cell pellets are re-suspended, at a concentration of 8.3e^5 cells/ml in DMEM-F12 with or without 4% BSA and 200 uM IBMX. 6 μls of cell suspensions are added to the assay plates. Plates are incubated for 20 min at room temperature prior to the addition of a 100 μM challenge dose of glucagon. On a separate plate glucagon dose response curves are run to determine the EC50 of glucagon. After a 30 min room temperature incubation the reaction is terminated by the addition of lysis buffer containing the cAMP detection reagents. Plates are incubated for an additional 60 min at room temperature prior to being read on the Perkin Elmer fluorescent plate reader. Raw is converted to nM of cAMP produced based on a cAMP standard curve. Converted data is then analyzed using the Pfizer data analysis program. IC50 values are determined from the generated sigmoidal dose response curves. Kb values are calculated using a modified Cheng-Prusoff equation. N is the number of times the compound was assayed.
For orientation: Cyclic AMP is a second messenger, typically raised through Gs and lowered through Gi signalling.
On to `CCCC(Oc1ccc(-c2cc[nH]n2)cc1)c1ccc(C(=O)NCCC(=O)O)cc1` (racemic) [Example 51, (+/−)-3-(4-(1-(4-(1H-pyrazol-3-yl)phenoxy)butyl)benzamido)propanoic acid], for which the Kb was 1810 nM.

`CCCC(Oc1ccc(-c2c(C)noc2C)cc1)c1ccc(C(=O)NCCC(=O)O)cc1` (racemic) [Example 52, (+/−)-3-(4-(1-(4-(3,5-dimethylisoxazol-4-yl)phenoxy)butyl)benzamido)propanoic acid] had a Kb of 2410 nM.

Consider `CCCC(Oc1ccc(-c2cnn(C)c2)cc1)c1ccc(C(=O)NCCC(=O)O)cc1` (racemic) [Example 54, (+/−)-3-(4-(1-(4-(1-methyl-1H-pyrazol-4-yl)phenoxy)butyl)benzamido)propanoic acid], for which the Kb was 3530 nM.

Take `CCCC(Oc1ccc(-c2cnn(C)c2C)cc1)c1ccc(C(=O)NCCC(=O)O)cc1` (racemic) [Example 55, (+/−)-3-(4-(1-(4-(1,5-dimethyl-1H-pyrazol-4-yl)phenoxy)butyl)benzamido)propanoic acid]: the Kb was found to be 3720 nM.

The molecule `CCCC(Oc1ccc(-c2cn[nH]c2)cc1)c1ccc(C(=O)NCCC(=O)O)cc1` (racemic) [Example 56, (+/−)-3-(4-(1-(4-(1H-pyrazol-4-yl)phenoxy)butyl)benzamido)propanoic acid] displayed a Kb of 4370 nM.

Molecule `CCCC(Oc1ccc(-c2ccnn2C)cc1)c1ccc(C(=O)NCCC(=O)O)cc1` (racemic) [Example 57, (+/−)-3-(4-(1-(4-(1-methyl-1H-pyrazol-5-yl)phenoxy)butyl)benzamido)propanoic acid] had a Kb of 6100 nM.

`CCCC(Oc1ccc(-c2c(C)nn(C)c2C)cc1)c1ccc(C(=O)NCCC(=O)O)cc1` (racemic) [Example 58, (+/−)-3-(4-(1-(4-(1,3,5-trimethyl-1H-pyrazol-4-yl)phenoxy)butyl)benzamido)propanoic acid] had a Kb of 7300 nM.

Molecule `CCCC(Nc1ccc(-n2cc(-c3ccccc3)cn2)nc1)c1ccc(C(=O)NCCC(=O)O)cc1` (racemic) [Example 62, (+/−)-3-(4-(1-(6-(4-phenyl-1H-pyrazol-1-yl)pyridine-3-ylamino)butyl)benzamido)propanoic acid] displayed a Kb of 32.2 nM.

In turn, `CCCC(Nc1ccc(-n2cc(F)cn2)cc1)c1ccc(C(=O)NCCC(=O)O)cc1` (racemic) [Example 63, (+/−)-3-(4-(1-(4-(4-fluoro-1H-pyrazol-1-yl)phenylamino)butyl)benzamido)propanoic acid] yielded a Kb of 613 nM.

The molecule `CC(C)CC(Nc1ccc(C(=O)NCCC(=O)O)cn1)c1ccc(-n2cc(C(F)(F)F)cn2)cc1` (racemic) [Example 64, (+/−)-3-(6-(3-methyl-1-(4-(4-(trifluoromethyl)-1H-pyrazol-1-yl)phenyl)butylamino)nicotinamido)propanoic acid] yielded a Kb of 494 nM.

`O=C(O)CCNC(=O)c1ccc(C(CC2CC2)Oc2ccc(-n3cc(C(F)(F)F)cn3)cc2)cc1` (racemic) [Example 65, (+/−)-3-(4-(2-cyclopropyl-1-(4-(4-(trifluoromethyl)-1H-pyrazol-1-yl)phenoxy)ethyl)benzamido)propanoic acid] had a Kb of 2880 nM.

For the molecule `CCCC(Oc1ccc(-n2ccc(C(F)(F)F)n2)cc1)c1ccc(C(=O)NCCC(=O)O)cc1` (racemic) [Example 70, (+/−)-3-(4-(1-(4-(3-(trifluoromethyl)-1H-pyrazol-1-yl)phenoxy)butyl)benzamido)propanoic acid], the Kb was 1910 nM.

On to `CC(C)(C)CC(Oc1ccc(-n2cc(C(F)(F)F)cn2)cc1)c1ccc(C(=O)NCCC(=O)O)cc1` (racemic) [Example 71, (+/−)-3-(4-(3,3-dimethyl-1-(4-(4-(trifluoromethyl)-1H-pyrazol-1-yl)phenoxy)butyl)benzamido)propanoic acid], for which the Kb was determined as 2120 nM.

The molecule `CCCC(Oc1ccc(-n2cc(C)c(C(F)(F)F)n2)cc1)c1ccc(C(=O)NCCC(=O)O)cc1` (racemic) [Example 72, (+/−)-3-(4-(1-(4-(4-methyl-3-(trifluoromethyl)-1H-pyrazol-1-yl)phenoxy)butyl)benzamido)propanoic acid] yielded a Kb of 2300 nM.

Molecule `CCCC(Oc1ccc(-n2cnc(C(F)(F)F)n2)cc1)c1ccc(C(=O)NCCC(=O)O)cc1` (racemic) [Example 73, (+/−)-3-(4-(1-(4-(3-(trifluoromethyl)-1H-1,2,4-triazol-1-yl)phenoxy)butyl)benzamido)propanoic acid] gave a Kb of 2640 nM.

The molecule `CCCC(Oc1ccc(-n2cc(C(F)(F)F)nc2C)cc1)c1ccc(C(=O)NCCC(=O)O)cc1` (racemic) [Example 75, (+/−)-3-(4-(1-(4-(2-methyl-4-(trifluoromethyl)-1H-imidazol-1-yl)phenoxy)butyl)benzamido)propanoic acid] had a Kb of 7710 nM.

In turn, `CCCC(Oc1ccc(-n2cc(C(F)(F)F)cn2)cn1)c1ccc(C(=O)NCCC(=O)O)cc1` (racemic) [Example 85, (+/−)-3-(4-(1-(5-(4-(trifluoromethyl)-1H-pyrazol-1-yl)pyridine-2-yloxy)butyl)benzamido)propanoic acid] yielded a Kb of 4140 nM.

`CCCC(Oc1ccc(-n2cnc(C(F)(F)F)c2)nc1)c1ccc(C(=O)NCCC(=O)O)cc1` (racemic) [Example 87, (+/−)-3-(4-(1-(6-(4-(trifluoromethyl)-1H-imidazol-1-yl)pyridine-3-yloxy)butyl)benzamido)propanoic acid] returned a Kb of 9390 nM.

The molecule `CCCC(Oc1ccc(-n2cc3c(n2)CCC3)cc1)c1ccc(C(=O)NCCC(=O)O)cc1` (racemic) [Example 90, (+/−)-3-(4-(1-(4-(5,6-dihydrocyclopenta[c]pyrazol-2(4H)-yl)phenoxy)butyl)benzamido)propanoic acid] registered a Kb above 2500 nM.

`CCCC(Nc1ccc(-n2cc(C)nn2)cc1)c1ccc(C(=O)NCCC(=O)O)cc1` (racemic) [Example 92, (+/−)-3-(4-(1-(4-(4-methyl-1H-1,2,3-triazol-1-yl)phenylamino)butyl)benzamido)propanoic acid] yielded a Kb of 5600 nM.

The molecule `CC(C)CC(Nc1ncc(C(=O)NCCC(=O)O)cn1)c1ccc(-n2cc(C(F)(F)F)cn2)cc1` (racemic) [Example 93, (+/−)-3-(2-(3-methyl-1-(4-(4-(trifluoromethyl)-1H-pyrazol-1-yl)phenyl)butylamino)pyrimidine-5-carboxamido)propanoic acid] came in with a Kb of 3840 nM.

`O=C(O)CCNC(=O)c1ccc(C(Nc2ccc(-n3cc(C(F)(F)F)cn3)nc2)C2CCCC2)cc1` (racemic) [Example 94, (+/−)-3-(4-(cyclopentyl(6-(4-(trifluoromethyl)-1H-pyrazol-1-yl)pyridine-3-ylamino)methyl)benzamido)propanoic acid] displayed a Kb of 57.5 nM.

`O=C(O)CCNC(=O)c1ccc(NC(c2ccc(-n3cc(C(F)(F)F)cn3)cc2)C2CCCCC2)nc1` (racemic) [Example 99] yielded a Kb of 376 nM.

Molecule `CC(C)(C)CC(Nc1ccc(-n2cnc(C(F)(F)F)c2)nc1)c1ccc(C(=O)NCCC(=O)O)cc1` (racemic) [Example 100, (+/−)-3-(4-(3,3-dimethyl-1-(6-(4-(trifluoromethyl)-1H-imidazol-1-yl)pyridine-3-ylamino)butyl)benzamido)propanoic acid] gave a Kb of 226 nM.
